Data from patent publication US10954214B2 (Janssen Pharmaceutica NV, priority 2016, dated 2021).

What was measured:
[1] = molecular target: full-length MALT1 protein (Strep-MALT1(1-824)-His) (Homo sapiens (Human), UniProt Q9UDY8); assay: MALT1 Biochemical Protease Assay (Ac-LRSR-AMC substrate); conditions: 10 nM FL MALT1, 200 μM Ac-LRSR-AMC, 4 h at RT; read-out: MALT1_Biochemical activity (Ac-LRSR-amc) IC50
How it was run: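 Full-length MALT1 pre-incubated with compounds (30 μM to 0.5 nM, 11 threefold steps) for 50 min at RT. After Ac-LRSR-AMC was added, the reaction ran 4 h at RT and AMC fluorescence was read. IC50 and Hill slope from curve fitting against no-enzyme and no-compound controls.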

[2] = tested on: IL6 secretion by OCI-LY3 ABC-DLBCL cells; assay: Human IL6 Mesoscale assay (OCI-LY3); format: cell-based; conditions: Homo sapiens, 24 h
Experimental: (§1) NFKB signaling regulates the secretion of multiple cytokines, including IL6 and IL10. Secretion of the cytokines IL6 and IL10 by TMD8 or OCI-LY3 ABC-DLBCL cells was measured using a mesoscale assay. Inhibition of NFKB signaling by MALT1 or BTK inhibitors results in a decrease of IL6/10 secretion.
(§2) TMD8 or OCI-LY3 cells were propagated in RPMI-1640 (Sigma Aldrich) supplemented with 10% fetal bovine serum (HyClone), 1 mM sodium pyruvate (Invitrogen), 2 mM L-glutamine (Sigma Aldrich) and 1% PenStrep (Sigma Aldrich). Cell passage number should not exceed 30. Cells should be kept between 0.5-2.5 million cells per mL during culturing and cells should be supplemented every 2-3 days with fresh 50 μM beta-mercaptoenthanol. No beta-mercaptoethanol was used during the mesoscale assay.
(§3) For the Mesoscale assay, 100,000 TMD8 or OCI-LY3 cells were seeded per well into black-colored 96-well plates with clear bottom (Corning #3904) and test compounds were added in 9 dilution steps (1:2) ranging from 15 μM to 58.6 nM (final DMSO concentration 0.3%). DMSO control wells were used to determine the maximum signal (High Control (HC)). Treatment with the BTK inhibitor RN486 in a dose range from 30 nM to 131 pM (9 dilutions of 1:2) served as a positive control for NFKB pathway inhibition and was used to determine the maximum inhibition (Low Control (LC)). Compounds and cells were incubated for 24 h at 37° C. and 5% CO2 (assay volume is 150 μL). After 24 h of incubation 50 μL of the supernatant was transferred to a MSD plate (V-Plex Proinflammation Panel 1 (human) kit, Mesoscale (MSD)) and incubated for 2 h with vigorous shaking (600 rpm) at room temperature. Following incubation, plates were washed 3× with PBS+0.05% Tween-20 and 25 μL detection antibody solution (IL6 & IL10 antibodies in diluent 3 (MSD)) was added per well followed by 2 h of incubation with vigorous shaking (600 rpm) at room temperature. After 3× washes with PBS+0.05% Tween-20, plates were incubated with 150 μL 2× Read Buffer T and read on SECTOR imager.

[3] = tested on: IL10 secretion by OCI-LY3 ABC-DLBCL cells; assay: Human IL10 Mesoscale assay (OCI-LY3); format: cell-based; conditions: Homo sapiens, 24 h
Experimental: as §1, §2, §3

Chain of full-length MALT1 protein (Strep-MALT1(1-824)-His) (Q9UDY8 whole entry): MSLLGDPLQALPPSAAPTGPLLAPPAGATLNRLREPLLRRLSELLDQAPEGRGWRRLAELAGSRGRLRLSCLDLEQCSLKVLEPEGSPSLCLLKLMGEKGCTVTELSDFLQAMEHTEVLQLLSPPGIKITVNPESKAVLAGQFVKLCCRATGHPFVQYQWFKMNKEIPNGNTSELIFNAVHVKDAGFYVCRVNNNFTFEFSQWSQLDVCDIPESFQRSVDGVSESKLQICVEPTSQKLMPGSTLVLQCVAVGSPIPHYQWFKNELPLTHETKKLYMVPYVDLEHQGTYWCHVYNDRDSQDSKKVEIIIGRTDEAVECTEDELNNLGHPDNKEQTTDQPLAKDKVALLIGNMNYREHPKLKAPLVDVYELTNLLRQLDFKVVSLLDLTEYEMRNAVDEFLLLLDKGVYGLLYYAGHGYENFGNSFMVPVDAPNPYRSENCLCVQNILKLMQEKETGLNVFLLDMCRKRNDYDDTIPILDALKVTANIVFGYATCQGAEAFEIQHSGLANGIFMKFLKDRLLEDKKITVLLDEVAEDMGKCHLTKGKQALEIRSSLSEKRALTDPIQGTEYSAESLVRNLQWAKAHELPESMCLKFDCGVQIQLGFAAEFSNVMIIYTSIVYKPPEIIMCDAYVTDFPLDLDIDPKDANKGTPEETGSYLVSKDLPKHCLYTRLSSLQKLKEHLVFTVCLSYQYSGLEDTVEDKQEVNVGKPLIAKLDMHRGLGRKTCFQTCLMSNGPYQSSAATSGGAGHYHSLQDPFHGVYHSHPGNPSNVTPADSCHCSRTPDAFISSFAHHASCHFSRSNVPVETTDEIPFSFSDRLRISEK

COCc1cnnn1-c1ncc(NC(=O)c2cnn(-c3cccc4ncccc34)c2C(F)(F)F)cc1Cl [Cpd 253, N-(5-chloro-6-(5-(methoxymethyl)-1H-1,2,3-triazol-1-yl)pyridin-3-yl)-1-(quinolin-5-yl)-5-(trifluoromethyl)-1H-pyrazole-4-carboxamide]
IC50 [1]: 282 nM | IC50 [2]: > 15100 nM | IC50 [3]: 12600 nM

Cc1nc2cccc(-n3ncc(C(=O)Nc4cnc(-n5nccn5)c(C#N)c4)c3C(F)(F)F)n2n1 [Cpd 254, N-(5-cyano-6-(2H-1,2,3-triazol-2-yl)pyridin-3-yl)-1-(2-methyl-[1,2,4]triazolo[1,5-a]pyridin-5-yl)-5-(trifluoromethyl)-1H-pyrazole-4-carboxamide]
IC50 [1]: 282 nM | IC50 [2]: 81 nM | IC50 [3]: 79 nM

Cn1nc(-c2ncc(NC(=O)c3cnn(-c4cccc5ncccc45)c3C(F)(F)F)cc2C#N)cc1C(=O)O [Cpd 255, 3-(3-cyano-5-(1-(quinolin-5-yl)-5-(trifluoromethyl)-1H-pyrazole-4-carboxamido)pyridin-2-yl)-1-methyl-1H-pyrazole-5-carboxylic acid]
IC50 [1]: 275 nM | IC50 [2]: 59 nM | IC50 [3]: 41 nM

COC(=O)c1cnn(-c2ccc(NC(=O)c3cnn(-c4cccc5ncccc45)c3C(F)(F)F)cc2Cl)n1 [Cpd 256, methyl 2-(2-chloro-4-(1-(quinolin-5-yl)-5-(trifluoromethyl)-1H-pyrazole-4-carboxamido)phenyl)-2H-1,2,3-triazole-4-carboxylate]
IC50 [1]: 240 nM | IC50 [2]: 257 nM | IC50 [3]: 240 nM

Cn1ncc2ccnc(-n3ncc(C(=O)Nc4cnc(-n5nccn5)c(C#N)c4)c3C(F)(F)F)c21 [Cpd 259, N-(5-cyano-6-(2H-1,2,3-triazol-2-yl)pyridin-3-yl)-1-(1-methyl-1H-pyrazolo[3,4-c]pyridin-7-yl)-5-(trifluoromethyl)-1H-pyrazole-4-carboxamide]
IC50 [1]: 219 nM | IC50 [2]: 145 nM | IC50 [3]: 151 nM

N#Cc1cc(NC(=O)c2cnn(-c3ccnc4cn[nH]c34)c2C(F)(F)F)cnc1-n1nccn1 [Cpd 262, N-(5-cyano-6-(2H-1,2,3-triazol-2-yl)pyridin-3-yl)-1-(1H-pyrazolo[4,3-b]pyridin-7-yl)-5-(trifluoromethyl)-1H-pyrazole-4-carboxamide]
IC50 [1]: 191 nM | IC50 [2]: 182 nM | IC50 [3]: 129 nM

Cn1nc(-n2ncc(C(=O)Nc3cnc(-n4nccn4)c(C#N)c3)c2C(F)(F)F)c2ccccc21 [Cpd 266, N-(5-cyano-6-(2H-1,2,3-triazol-2-yl)pyridin-3-yl)-1-(1-methyl-1H-indazol-3-yl)-5-(trifluoromethyl)-1H-pyrazole-4-carboxamide]
IC50 [1]: 158 nM | IC50 [2]: 186 nM | IC50 [3]: 178 nM

N#Cc1cc(NC(=O)c2cnn(-c3ccnc4cccnc34)c2C(F)(F)F)cnc1-n1nccn1 [Cpd 269, N-(5-cyano-6-(2H-1,2,3-triazol-2-yl)pyridin-3-yl)-1-(1,5-naphthyridin-4-yl)-5-(trifluoromethyl)-1H-pyrazole-4-carboxamide]
IC50 [1]: 155 nM | IC50 [2]: 83 nM | IC50 [3]: 85 nM

CN(C)Cc1cnnn1-c1ncc(NC(=O)c2cnn(-c3cccc4ncccc34)c2C(F)(F)F)cc1Cl [Cpd 270, N-(5-chloro-6-(5-((dimethylamino)methyl)-1H-1,2,3-triazol-1-yl)pyridin-3-yl)-1-(quinolin-5-yl)-5-(trifluoromethyl)-1H-pyrazole-4-carboxamide]
IC50 [1]: 145 nM | IC50 [2]: 170 nM | IC50 [3]: 98 nM

Cc1nc2cccc(-n3ncc(C(=O)Nc4cnc(-n5nccn5)c(C#N)c4)c3C(F)(F)F)c2o1 [Cpd 271, N-(5-cyano-6-(2H-1,2,3-triazol-2-yl)pyridin-3-yl)-1-(2-methylbenzo[d]oxazol-7-yl)-5-(trifluoromethyl)-1H-pyrazole-4-carboxamide]
IC50 [1]: 145 nM | IC50 [2]: 112 nM | IC50 [3]: 95 nM

NCc1cnn(-c2ncc(NC(=O)c3cnn(-c4cccc5ncccc45)c3C(F)(F)F)cc2Cl)n1 [Cpd 272, N-(6-(4-(aminomethyl)-2H-1,2,3-triazol-2-yl)-5-chloropyridin-3-yl)-1-(quinolin-5-yl)-5-(trifluoromethyl)-1H-pyrazole-4-carboxamide]
IC50 [1]: 145 nM | IC50 [2]: 126 nM | IC50 [3]: 87 nM

Cn1ccc(-c2ncc(NC(=O)c3cnn(-c4ccc(F)c5ncccc45)c3C(F)(F)F)cc2Cl)n1 [Cpd 273, N-(5-chloro-6-(1-methyl-1H-pyrazol-3-yl)pyridin-3-yl)-1-(8-fluoroquinolin-5-yl)-5-(trifluoromethyl)-1H-pyrazole-4-carboxamide]
IC50 [1]: 145 nM | IC50 [2]: 85 nM | IC50 [3]: 66 nM

N#Cc1cc(NC(=O)c2cnn(-c3cccc4ncnn34)c2C(F)(F)F)cnc1-n1nccn1 [Cpd 274, 1-([1,2,4]triazolo[1,5-a]pyridin-5-yl)-N-(5-cyano-6-(2H-1,2,3-triazol-2-yl)pyridin-3-yl)-5-(trifluoromethyl)-1H-pyrazole-4-carboxamide]
IC50 [1]: 141 nM | IC50 [2]: 2750 nM | IC50 [3]: 3160 nM

N#Cc1cc(NC(=O)c2cnn(-c3ccnc4cnccc34)c2C(F)(F)F)cnc1-n1nccn1 [Cpd 276, N-(5-cyano-6-(2H-1,2,3-triazol-2-yl)pyridin-3-yl)-1-(1,7-naphthyridin-4-yl)-5-(trifluoromethyl)-1H-pyrazole-4-carboxamide]
IC50 [1]: 138 nM | IC50 [2]: 186 nM | IC50 [3]: 117 nM

Nc1nc2cccc(-n3ncc(C(=O)Nc4cnc(-n5nccn5)c(Cl)c4)c3C(F)(F)F)c2s1 [Cpd 278, 1-(2-aminobenzo[d]thiazol-7-yl)-N-(5-chloro-6-(2H-1,2,3-triazol-2-yl)pyridin-3-yl)-5-(trifluoromethyl)-1H-pyrazole-4-carboxamide]
IC50 [1]: 129 nM | IC50 [2]: 141 nM | IC50 [3]: 219 nM

N#Cc1cc(NC(=O)c2cnn(-c3cccc4nc(N)sc34)c2C(F)(F)F)cnc1-n1nccn1 [Cpd 282, 1-(2-aminobenzo[d]thiazol-7-yl)-N-(5-cyano-6-(2H-1,2,3-triazol-2-yl)pyridin-3-yl)-5-(trifluoromethyl)-1H-pyrazole-4-carboxamide]
IC50 [1]: 123 nM | IC50 [2]: 741 nM | IC50 [3]: 417 nM

O=C(Nc1cnc(-n2ccnn2)c(C(F)(F)F)c1)c1cnn(-c2cccc3ncccc23)c1C(F)(F)F [Cpd 283, N-(6-(1H-1,2,3-triazol-1-yl)-5-(trifluoromethyl)pyridin-3-yl)-1-(quinolin-5-yl)-5-(trifluoromethyl)-1H-pyrazole-4-carboxamide]
IC50 [1]: 123 nM | IC50 [2]: 851 nM | IC50 [3]: 550 nM

O=C(Nc1cnc(-n2nccn2)c(Cl)c1)c1cnn(-c2noc3ccccc23)c1C(F)(F)F [Cpd 284, 1-(benzo[d]isoxazol-3-yl)-N-(5-chloro-6-(2H-1,2,3-triazol-2-yl)pyridin-3-yl)-5-(trifluoromethyl)-1H-pyrazole-4-carboxamide]
IC50 [1]: 120 nM | IC50 [2]: 589 nM | IC50 [3]: 724 nM

O=C(Nc1cnc(-n2nccn2)c(Cl)c1)c1cnn(-c2cnc(Cl)c3ccccc23)c1C(F)(F)F [Cpd 285, N-(5-chloro-6-(2H-1,2,3-triazol-2-yl)pyridin-3-yl)-1-(1-chloroisoquinolin-4-yl)-5-(trifluoromethyl)-1H-pyrazole-4-carboxamide]
IC50 [1]: 112 nM | IC50 [2]: 229 nM | IC50 [3]: 204 nM

N#Cc1cc(NC(=O)c2cnn(-c3cccc4cn[nH]c34)c2C(F)(F)F)cnc1-n1nccn1 [Cpd 286, N-(5-cyano-6-(2H-1,2,3-triazol-2-yl)pyridin-3-yl)-1-(1H-indazol-7-yl)-5-(trifluoromethyl)-1H-pyrazole-4-carboxamide]
IC50 [1]: 110 nM | IC50 [2]: 200 nM | IC50 [3]: 200 nM

O=C(Nc1cnc(-n2ccnn2)c(Br)c1)c1cnn(-c2cccc3ncccc23)c1C(F)(F)F [Cpd 287, N-(5-bromo-6-(1H-1,2,3-triazol-1-yl)pyridin-3-yl)-1-(quinolin-5-yl)-5-(trifluoromethyl)-1H-pyrazole-4-carboxamide]
IC50 [1]: 95 nM | IC50 [2]: 229 nM | IC50 [3]: 234 nM

O=C(Nc1cnc(-c2ncco2)c(Cl)c1)c1cnn(-c2ccc(F)c3ncccc23)c1C(F)(F)F [Cpd 288, N-(5-chloro-6-(oxazol-2-yl)pyridin-3-yl)-1-(8-fluoroquinolin-5-yl)-5-(trifluoromethyl)-1H-pyrazole-4-carboxamide]
IC50 [1]: 95 nM | IC50 [2]: 251 nM | IC50 [3]: 91 nM
